Reference: patent US20250195687A1, “PEPTIDE-BASED PHOSPHATE BINDER FOR THE TREATMENT OF HYPERPHOSPHATEMIA” (B. G. NEGEV TECHNOLOGIES AND APPLICATIONS LTD., priority 2022, published 2025)

What was measured:
[1] = Colorimetric (molybdenum blue) phosphate binding in intestinal and gastric fluid simulants; details: pH=6 or pH=7.5 (clinical PhB at pH=7.5)
Source text: The binding efficiency of the SiO2-CysHex particles in intestinal and digestive fluid simulants was examined by a colorimetric method. The procedure was based on the determination of the amount of uncaptured phosphate from a solution of known initial phosphate concentration. A spectrophotometric assay referred to as the molybdenum blue reaction was employed. It emits a blue color whose intensity is linearly proportional to the amount of phosphate present in the solution allowing by measurement of color intensity and proper calibration, to determine phosphate concentration. The reaction involves the following two steps: • 1. PO4^3−+12(NH4)2MoO4+24H^+→(NH4)3PO4·12MoO3+21NH4^++12H2O • 2. […]
For this experiment, a phosphate assay kit (Sigma-Aldrich) with a stated concentration range between 0.005 mM and 0.025 mM phosphate was used. The kit included a 10 mM phosphate standard solution and a coloring reagent that reacts with phosphates to form a complex that could be measured and quantified by UV-VIS absorbance spectroscopy. The phosphate standard was used to prepare a calibration curve between the absorbance intensity at a wavelength of 650 nm and phosphate concentrations. […]
A volume of 20 μL of the supernatant filtrate (sec 4.3.3.1.2), 180 μL DI water, and 30 μL coloring reagent were added to a 96 well plate. Two duplicates of each sample were measured, and the resulting values were averaged. […]

[2] = 31P NMR phosphate peak widening by free peptide in intestinal fluid simulants; format: binding; details: for phosphate peak widening: peptide 13.1 mM, phosphate 2.6 mM
Source text: ^31P NMR-NMR relaxation is the process by which excited magnetic state nuclei return to their equilibrium distribution. At the start of an NMR experiment, the nuclei are “lined up” with the external magnetic field. When an electromagnetic RF field is activated on these nuclei, they resonate at a characteristic resonance frequency, and the NMR signal is created. At that instant, all the nuclei are in phase and coherent. However, due to small differences in their resonance frequencies, they will begin to dephase. The time it takes for the nuclei to dephase is measured by T2 the so-called spin-spin relaxation time. T2 is inversely proportional to Δω, the width of the resonance peak in the spectra measured at half the maximum height: Δω=2/T2. The more slowly a macromolecule tumbles, the shorter its T2; thus, big molecules have broader resonance peaks than small molecules. An increase in molecular size due to interaction or reduced mobility affects the T2 relaxation time and is manifested by widening the NMR signal.
In this study, phosphate-binding experiments of free (unattached to silica) peptides in intestinal fluid simulants as function of the surrounding pH were examined. Binding was determined by the widening of the relevant phosphate peaks in phosphorus NMR (^31P NMR) spectra. These experiments aimed to investigate the effect of the background solution containing many components on the ability of the peptide to bind phosphate. ^31P NMR experiments were preferred over standard ^1H NMR since in the former only one (phosphate) or at most two (phosphate and phospholipid) peaks are detected as opposed to the multitude of frequently overlapping, peaks in the spectra of the latter. […]
Samples were prepared by mixing the required amounts of phosphate stock solution, and FAS or FES solutions into one 1.5 mL Eppendorf tube, and phosphate stock, peptide stock, and FAS or FES solution into a second similar tube. in. The pH was measured and adjusted to the desired value as described above. […] The contents of each Eppendorf tube were analyzed separately by NMR as described below. […]

[3] = 31P NMR phospholipid peak widening by free peptide in FES solution; format: binding
Source text: ^31P NMR-NMR relaxation is the process by which excited magnetic state nuclei return to their equilibrium distribution. At the start of an NMR experiment, the nuclei are “lined up” with the external magnetic field. When an electromagnetic RF field is activated on these nuclei, they resonate at a characteristic resonance frequency, and the NMR signal is created. At that instant, all the nuclei are in phase and coherent. However, due to small differences in their resonance frequencies, they will begin to dephase. The time it takes for the nuclei to dephase is measured by T2 the so-called spin-spin relaxation time. T2 is inversely proportional to Δω, the width of the resonance peak in the spectra measured at half the maximum height: Δω=2/T2. The more slowly a macromolecule tumbles, the shorter its T2; thus, big molecules have broader resonance peaks than small molecules. An increase in molecular size due to interaction or reduced mobility affects the T2 relaxation time and is manifested by widening the NMR signal. […]
The first sample used for FES solution reference was composed of 1 mL FES solution which was placed in a 1.5 mL Eppendorf tube. […] The pH was measured using a pH electrode (Mettler Toledo, SevenComplex) and adjusted to the desired value by dropwise addition of HCl or NaOH solutions. […] The contents of each Eppendorf tube were analyzed separately by NMR as described below.
Solution ^31P NMR data were collected on a Bruker Avance III 400 MHz spectrometer (Bruker BioSpin, Germany). […] A capillary tube insert filled with phosphoric acid solution in D2O (10% v/v phosphoric acid in D2O/H2O) was used for calibration and inserted into the NMR tube that contained the measured sample. […] NMR data was analyzed using TopSpin software (Bruker).
The capability of a free unbound peptide to capture phosphate in the intestinal simulant solutions was examined using P NMR. […] As discussed above, binding is qualitatively evaluated by the decrease in T2 relaxation, or the corresponding widening of the peak associated with the phosphorus nuclei in the molecule and calculated as follows: […]

Row | pH of lowest phospholipid binding ([3]; absence of phosphate) | phospholipid binding ([3]; absence of phosphate, 6.5 peptide molecules per phospholipid molecule, entire relevant pH range) | Compound | Phosphate binding effectiveness ([1]; FAS) [mg phosphate/gr PhB] | Phosphate binding effectiveness ([1]; FES) [mg phosphate/gr PhB] | phosphate peak widening ([2]; FAS solution) | phosphate peak widening ([2]; FES solution) | pH range in which the peptide captures phosphate ([2]; only in FES) | phospholipid peak width (ratio) ([3]; pH=6, peptide 13.1 mM and phosphate 2.6 mM present, phospholipid 2 mM, average of three measurements)
1 | – | – | O=C([O-])[O-].O=C([O-])[O-].O=C([O-])[O-].[La+3].[La+3] [Lanthanum, Lanthanum carbonate] | 4.1 | 0.9 | – | – | – | –
2 | ~6 | binds the phospholipid quite effectively | Cys-SGAGKT [CysHex] | – | – | no widening | pH dependent and is maximal at pH values commensurate with values in the GI tract | 7-8 | 0.93±0.15
